Assay results: patent publication US9255085B2, “Carboxamide compounds and methods for using the same” (Rigel Pharmaceuticals, Inc., priority 2008, dated 2016)

Molecular target: AMPK
Assay: AMPK activation, enzyme-linked immunosorbent assay
Format: biochemical
Conditions: ELISA
Method: Compounds 1-13 were assayed for their ability to activate AMPK using an enzyme-linked immunosorbent assay.
Compounds 14-16 were assayed for their ability to activate AMPK using an enzyme-linked immunosorbent assay.
Compounds 17-18 were assayed for their ability to activate AMPK using an enzyme-linked immunosorbent assay.
Compounds 19-22 were assayed for their ability to activate AMPK using an enzyme-linked immunosorbent assay.
Compounds 23-26 were assayed for their ability to activate AMPK using an enzyme-linked immunosorbent assay.
Compounds 27-33 were assayed for their ability to activate AMPK using an enzyme-linked immunosorbent assay.
Compounds 34-42 were assayed for their ability to activate AMPK using an enzyme-linked immunosorbent assay.

Compound: N#Cc1ccc(CN2CCC(NC(=O)c3ccc(C(=O)NC4CCN(c5ccccc5)CC4)cc3)CC2)cc1 [Compound 32, N^1-(1-(4-Cyanobenzyl)piperidin-4-yl)-N^4-(1-phenylpiperidin-4-yl)terephthalamide]
- EC50 (Table 7): 10000 to 100000 nM

Compound: N#Cc1ccc(CN2CCC(NC(=O)c3cnc(OC4CCN(c5ccc(C(F)(F)F)cc5)CC4)s3)CC2)cc1 [Compound 23, N-(1-(4-cyanobenzyl)piperidin-4-yl)-2-(1-(4-(trifluoromethyl)phenyl)piperidin-4-yloxy)thiazole-5-carboxamide]
- EC50 (Table 6): < 100 nM

Compound: N#Cc1ccc(CN2CCC(NC(=O)c3nc4ccc(OC5CCN(c6ccc(C(F)(F)F)cc6)CC5)cc4o3)CC2)cc1 [Compound 2, N-(1-(4-Cyanobenzyl)piperidin-4-yl)-6-(1-(4-(trifluoromethyl)phenyl)piperidin-4-yloxy)benzo[d]oxazole-2-carboxamide]
- EC50 (Table 2): < 100 nM

Compound: N#Cc1ccc(CN2CCC(NC(=O)c3cnc(OC4CCN(c5ccc(C#N)cc5)CC4)s3)CC2)cc1 [Compound 24, N-(1-(4-Cyanobenzyl)piperidin-4-yl)-2-(1-(4-cyanophenyl)piperidin-4-yloxy)thiazole-5-carboxamide]
- EC50 (Table 6): < 100 nM

Compound: O=C(NC1CCN(Cc2ccncc2)CC1)c1cnc(OC2CCN(c3ccc(C(F)(F)F)cc3)CC2)cn1 [Compound 21, N-(1-(Pyridin-4-ylmethyl)piperidin-4-yl)-5-(1-(4-(trifluoromethyl)phenyl)piperidin-4-yloxy)pyrazine-2-carboxamide]
- EC50 (Table 5): < 100 nM

Compound: N#Cc1ccc(C(=O)N2CCC(NC(=O)c3nc4ccc(OC5CCN(c6ccc(C(F)(F)F)cc6)CC5)cc4o3)CC2)cc1 [Compound 6, N-(1-(4-Cyanobenzoyl)piperidin-4-yl)-6-(1-(4-(trifluoromethyl)phenyl)piperidin-4-yloxy)benzo[d]oxazole-2-carboxamide]
- EC50 (Table 2): < 100 nM

Compound: N#Cc1ccc(CN2CCC(NC(=O)c3ccc4c(c3)CN(Cc3ccc(F)cc3)CC4)CC2)cc1 [Compound 40, N-(1-(4-cyanobenzyl)piperidin-4-yl)-2-(4-fluorobenzyl)-1,2,3,4-tetrahydroisoquinoline-7-carboxamide]
- EC50 (Table 8): < 100 nM

Compound: O=C(NC1CCN(Cc2ccncc2)CC1)c1nc2ccc(OC3CCN(c4ccc(C(F)(F)F)cc4)CC3)cc2o1 [Compound 3, N-(1-(Pyridin-4-ylmethyl)piperidin-4-yl)-6-(1-(4-(trifluoromethyl)phenyl)piperidin-4-yloxy)benzo[d]oxazole-2-carboxamide]
- EC50 (Table 2): < 100 nM

Compound: O=C(c1nc2ccc(OC3CCN(c4ccc(C(F)(F)F)cc4)CC3)cc2o1)N1CC2CC1CN2Cc1ccncc1 (stereo not shown) [Compound 8, (5-(pyridin-4-ylmethyl)-2,5-diazabicyclo[2.2.1]heptan-2-yl)(6-(1-(4-(trifluoromethyl)phenyl)piperidin-4-yloxy)benzo[d]oxazol-2-yl)methanone]
- EC50 (Table 2): 100 to 1000 nM

Compound: CC(C)(C)OC(=O)N1CCC(NC(=O)c2nc3ccc(OC4CCN(c5ccc(C(F)(F)F)cc5)CC4)cc3s2)CC1 [Compound 14, tert-butyl 4-(6-(1-(4-(trifluoromethyl)phenyl)piperidin-4-yloxy)benzo[d]thiazole-2-carboxamido)piperidine-1-carboxylate]
- EC50 (Table 3): 1000 to 10000 nM

Compound: N#Cc1ccc(CN2CCC(NC(=O)c3ccc(C(=O)N4CCN(Cc5ccc(Cl)cc5)CC4)cc3)CC2)cc1 [Compound 28, 4-(4-(4-Chlorobenzyl)piperazine-1-carbonyl)-N-(1-(4-cyanobenzyl)piperidin-4-yl)benzamide]
- EC50 (Table 7): < 100 nM

Compound: CC(C)(C)OC(=O)N1CCC(NC(=O)c2nc3ccc(OC4CCN(c5ccc(C(F)(F)F)cc5)CC4)cc3o2)CC1 [Compound 1, tert-butyl 4-(6-(1-(4-(trifluoromethyl)phenyl)piperidin-4-yloxy)benzo[d]oxazole-2-carboxamido)piperidine-1-carboxylate]
- EC50 (Table 2): < 100 nM

Compound: N#Cc1ccc(CN2CCC(NC(=O)c3cnc(OC4CCN(c5ccc(C(F)(F)F)cc5)CC4)cn3)CC2)cc1 [Compound 22, N-(1-(4-Cyanobenzyl)piperidin-4-yl)-5-(1-(4-(trifluoromethyl)phenyl)piperidin-4-yloxy)pyrazine-2-carboxamide]
- EC50 (Table 5): < 100 nM
